Counter-ions that a name gives are not always drawn.
Tests used:
Conditions in all cases: exposure time 48 h
[1] = test system: Caenorhabditis elegans N2; assay: lowest effective concentration for larval growth inhibition (size below effect threshold); higher = less potent
In short: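 Each well of a 96-well plate received 50 C. elegans N2 L1 larvae, which grew for 48 h at 20°C in K-medium containing killed bacteria, 1% DMSO and the chemical at 0.5, 1, 5, 10, 50, 100 or 200 µM. A Biosort recorded the extinction of every worm as its size, and these readings were log-transformed and averaged per well. The lowest effective concentration is defined as the first dose at which the plate-adjusted mean size falls below the threshold and stays below it at all higher doses; that threshold is 5.665.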

[2] = test system: Caenorhabditis elegans N2; assay: AC50 for larval growth inhibition (Hill fit); higher = less potent
In short: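 Worms were synchronised C. elegans N2 L1 larvae, 50 per well of a 96-well plate, kept 48 h at 20°C in K-medium with killed OP50, 1% DMSO and 0.5–200 µM chemical. Size was taken as COPAS Biosort extinction, log-transformed and averaged per well, using only wells with at least 10 worms. AC50 was estimated by a constrained Hill fit with weighted genetic-algorithm regression; values outside the range are censored.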

[3] = test system: Caenorhabditis elegans N2; assay: mean nematode size ln(EXT) after 48 h, plate-adjusted (DMSO control set to 6) (ln(EXT), control-adjusted); higher = larger nematodes / less growth inhibition
In short: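 Synchronised C. elegans N2 L1 larvae (50 per well, 4–6 wells per treatment) were grown for 48 h at 20°C in K-medium with killed OP50, 1% DMSO and 0.5–200 µM chemical. The Biosort measured each worm's extinction, and debris was removed by a growth model. Values were natural-logged and averaged per well. Mean size was then plate-adjusted by subtracting the vehicle control mean and adding 6.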

CC(C)=CC1C(C(=O)OCc2coc(Cc3ccccc3)c2)C1(C)C (configuration not stated) [Resmethrin]
lowest effective concentration [1]: 200 µM
AC50 for larval growth inhibition [2]: > 200 µM
mean nematode size ln(EXT) (ln) ([3]; 0.5 µM): 5.75
mean nematode size ln(EXT) (ln) ([3]; 1 µM): 5.64
mean nematode size ln(EXT) (ln) ([3]; 5 µM): 5.46
mean nematode size ln(EXT) (ln) ([3]; 10 µM): 5.58
mean nematode size ln(EXT) (ln) ([3]; 50 µM): 5.84
mean nematode size ln(EXT) (ln) ([3]; 100 µM): 5.8
mean nematode size ln(EXT) (ln) ([3]; 200 µM): 4.98

CC1=C(/C=C/C(C)=C/C=C/C(C)=C/C(=O)O)C(C)(C)CCC1 [Retinoic acid]
lowest effective concentration [1]: 10 µM
AC50 for larval growth inhibition [2]: 16.6 µM
mean nematode size ln(EXT) (ln) ([3]; 0.5 µM): 5.96
mean nematode size ln(EXT) (ln) ([3]; 1 µM): 5.78
mean nematode size ln(EXT) (ln) ([3]; 5 µM): 5.8
mean nematode size ln(EXT) (ln) ([3]; 10 µM): 5.58
mean nematode size ln(EXT) (ln) ([3]; 50 µM): 4.47
mean nematode size ln(EXT) (ln) ([3]; 100 µM): 4.33
mean nematode size ln(EXT) (ln) ([3]; 200 µM): 4.41

CO[C@H]1/C=C/O[C@@]2(C)Oc3c(C)c(O)c4c(O)c(c(/C=N/N5CCN(C)CC5)c(O)c4c3C2=O)NC(=O)/C(C)=C\C=C\[C@H](C)[C@H](O)[C@@H](C)[C@@H](O)[C@@H](C)[C@H](OC(C)=O)[C@@H]1C [Rifampicin]
lowest effective concentration [1]: 200 µM
AC50 for larval growth inhibition [2]: > 200 µM
mean nematode size ln(EXT) (ln) ([3]; 0.5 µM): 5.96
mean nematode size ln(EXT) (ln) ([3]; 1 µM): 5.92
mean nematode size ln(EXT) (ln) ([3]; 5 µM): 5.94
mean nematode size ln(EXT) (ln) ([3]; 10 µM): 5.98
mean nematode size ln(EXT) (ln) ([3]; 50 µM): 5.84
mean nematode size ln(EXT) (ln) ([3]; 100 µM): 5.84
mean nematode size ln(EXT) (ln) ([3]; 200 µM): 5.56

C=C(C)[C@H]1Cc2c(ccc3c2O[C@@H]2COc4cc(OC)c(OC)cc4[C@@H]2C3=O)O1 [Rotenone]
lowest effective concentration [1]: 200 µM
AC50 for larval growth inhibition [2]: 181 µM
mean nematode size ln(EXT) (ln) ([3]; 0.5 µM): 5.16
mean nematode size ln(EXT) (ln) ([3]; 1 µM): 6.51
mean nematode size ln(EXT) (ln) ([3]; 5 µM): 6.12
mean nematode size ln(EXT) (ln) ([3]; 10 µM): 6.26
mean nematode size ln(EXT) (ln) ([3]; 50 µM): 6.39
mean nematode size ln(EXT) (ln) ([3]; 100 µM): 6.45
mean nematode size ln(EXT) (ln) ([3]; 200 µM): 4.07

C=CCC1=C(C)[C@@H](OC(=O)[C@@H]2[C@@H](C=C(C)C)C2(C)C)CC1=O [S-Bioallethrin]
lowest effective concentration [1]: 50 µM
AC50 for larval growth inhibition [2]: > 200 µM
mean nematode size ln(EXT) (ln) ([3]; 0.5 µM): 5.65
mean nematode size ln(EXT) (ln) ([3]; 1 µM): 5.78
mean nematode size ln(EXT) (ln) ([3]; 5 µM): 5.76
mean nematode size ln(EXT) (ln) ([3]; 10 µM): 5.76
mean nematode size ln(EXT) (ln) ([3]; 50 µM): 5.48
mean nematode size ln(EXT) (ln) ([3]; 100 µM): 5.62
mean nematode size ln(EXT) (ln) ([3]; 200 µM): 5.39

C=CCc1ccc2c(c1)OCO2 [Safrole]
lowest effective concentration [1]: 200 µM
AC50 for larval growth inhibition [2]: 188 µM
mean nematode size ln(EXT) (ln) ([3]; 0.5 µM): 6.12
mean nematode size ln(EXT) (ln) ([3]; 1 µM): 6.08
mean nematode size ln(EXT) (ln) ([3]; 5 µM): 5.92
mean nematode size ln(EXT) (ln) ([3]; 10 µM): 6.02
mean nematode size ln(EXT) (ln) ([3]; 50 µM): 5.96
mean nematode size ln(EXT) (ln) ([3]; 100 µM): 6.05
mean nematode size ln(EXT) (ln) ([3]; 200 µM): 5.62

CCCCCCCCOC(=O)CCCCCCCCC(=O)OCCCCCCCC [Sebacic acid di-n-octyl ester]
lowest effective concentration [1]: 200 µM
AC50 for larval growth inhibition [2]: 39.2 µM
mean nematode size ln(EXT) (ln) ([3]; 0.5 µM): 5.75
mean nematode size ln(EXT) (ln) ([3]; 1 µM): 5.77
mean nematode size ln(EXT) (ln) ([3]; 5 µM): 5.82
mean nematode size ln(EXT) (ln) ([3]; 10 µM): 6.22
mean nematode size ln(EXT) (ln) ([3]; 50 µM): 5.69
mean nematode size ln(EXT) (ln) ([3]; 100 µM): 5.67
mean nematode size ln(EXT) (ln) ([3]; 200 µM): 5.58

CCC/C(=N\OCC)C1=C(O)CC(CC(C)SCC)CC1=O (configuration not stated) [Sethoxydim]
lowest effective concentration [1]: 200 µM
AC50 for larval growth inhibition [2]: 149 µM
mean nematode size ln(EXT) (ln) ([3]; 0.5 µM): 6.01
mean nematode size ln(EXT) (ln) ([3]; 1 µM): 6.16
mean nematode size ln(EXT) (ln) ([3]; 5 µM): 6.06
mean nematode size ln(EXT) (ln) ([3]; 10 µM): 6
mean nematode size ln(EXT) (ln) ([3]; 50 µM): 5.76
mean nematode size ln(EXT) (ln) ([3]; 100 µM): 5.97
mean nematode size ln(EXT) (ln) ([3]; 200 µM): 3.35

CCC(C)(C)C(=O)O[C@H]1C[C@@H](C)C=C2C=C[C@H](C)[C@H](CC[C@@H]3C[C@@H](O)CC(=O)O3)[C@H]21 [Simvastatin]
lowest effective concentration [1]: 100 µM
AC50 for larval growth inhibition [2]: > 200 µM
mean nematode size ln(EXT) (ln) ([3]; 0.5 µM): 5.79
mean nematode size ln(EXT) (ln) ([3]; 1 µM): 5.93
mean nematode size ln(EXT) (ln) ([3]; 5 µM): 6
mean nematode size ln(EXT) (ln) ([3]; 10 µM): 5.84
mean nematode size ln(EXT) (ln) ([3]; 50 µM): 5.7
mean nematode size ln(EXT) (ln) ([3]; 100 µM): 5.39
mean nematode size ln(EXT) (ln) ([3]; 200 µM): 4.67

On1ccccc1=S [Sodium (2-pyridylthio)-N-oxide]
lowest effective concentration [1]: 200 µM
AC50 for larval growth inhibition [2]: > 200 µM
mean nematode size ln(EXT) (ln) ([3]; 0.5 µM): 5.88
mean nematode size ln(EXT) (ln) ([3]; 1 µM): 5.86
mean nematode size ln(EXT) (ln) ([3]; 5 µM): 5.84
mean nematode size ln(EXT) (ln) ([3]; 10 µM): 5.87
mean nematode size ln(EXT) (ln) ([3]; 50 µM): 5.74
mean nematode size ln(EXT) (ln) ([3]; 100 µM): 5.74
mean nematode size ln(EXT) (ln) ([3]; 200 µM): 5.51

[N-]=[N+]=[N-] [Sodium azide]
lowest effective concentration [1]: 50 µM
AC50 for larval growth inhibition [2]: > 200 µM
mean nematode size ln(EXT) (ln) ([3]; 0.5 µM): 5.79
mean nematode size ln(EXT) (ln) ([3]; 1 µM): 5.92
mean nematode size ln(EXT) (ln) ([3]; 5 µM): 5.83
mean nematode size ln(EXT) (ln) ([3]; 10 µM): 5.76
mean nematode size ln(EXT) (ln) ([3]; 50 µM): 5.63
mean nematode size ln(EXT) (ln) ([3]; 100 µM): 5.45
mean nematode size ln(EXT) (ln) ([3]; 200 µM): 5.49

CCCCCCCCCCCCCCCCOS(=O)(=O)O [Sodium cetyl sulfate]
lowest effective concentration [1]: 50 µM
AC50 for larval growth inhibition [2]: 74.7 µM
mean nematode size ln(EXT) (ln) ([3]; 0.5 µM): 5.79
mean nematode size ln(EXT) (ln) ([3]; 1 µM): 6.01
mean nematode size ln(EXT) (ln) ([3]; 5 µM): 5.91
mean nematode size ln(EXT) (ln) ([3]; 10 µM): 5.92
mean nematode size ln(EXT) (ln) ([3]; 50 µM): 5.38
mean nematode size ln(EXT) (ln) ([3]; 100 µM): 5
mean nematode size ln(EXT) (ln) ([3]; 200 µM): 4.68

CCCCCCCCCCCCOS(=O)(=O)[O-].[Na+] [Sodium dodecyl sulfate]
lowest effective concentration [1]: 10 µM
AC50 for larval growth inhibition [2]: 24.5 µM
mean nematode size ln(EXT) (ln) ([3]; 0.5 µM): 5.87
mean nematode size ln(EXT) (ln) ([3]; 1 µM): 5.81
mean nematode size ln(EXT) (ln) ([3]; 5 µM): 5.75
mean nematode size ln(EXT) (ln) ([3]; 10 µM): 5.47
mean nematode size ln(EXT) (ln) ([3]; 50 µM): 4.99
mean nematode size ln(EXT) (ln) ([3]; 100 µM): 4.66
mean nematode size ln(EXT) (ln) ([3]; 200 µM): 4.69

CCCCCCCC/C=C\CCCCCCCC(=O)OC[C@@H](O)[C@H]1OC[C@H](O)[C@H]1O [Sorbitan, mono-(9Z)-9-octadecenoate]
lowest effective concentration [1]: 200 µM
AC50 for larval growth inhibition [2]: > 200 µM
mean nematode size ln(EXT) (ln) ([3]; 0.5 µM): 5.92
mean nematode size ln(EXT) (ln) ([3]; 1 µM): 5.88
mean nematode size ln(EXT) (ln) ([3]; 5 µM): 5.92
mean nematode size ln(EXT) (ln) ([3]; 10 µM): 5.89
mean nematode size ln(EXT) (ln) ([3]; 50 µM): 5.89
mean nematode size ln(EXT) (ln) ([3]; 100 µM): 5.83
mean nematode size ln(EXT) (ln) ([3]; 200 µM): 5.34

CCC(C)(C)C(=O)OC1=C(c2ccc(Cl)cc2Cl)C(=O)OC12CCCCC2 [Spirodiclofen]
lowest effective concentration [1]: 50 µM
AC50 for larval growth inhibition [2]: 24 µM
mean nematode size ln(EXT) (ln) ([3]; 0.5 µM): 5.74
mean nematode size ln(EXT) (ln) ([3]; 1 µM): 5.86
mean nematode size ln(EXT) (ln) ([3]; 5 µM): 5.7
mean nematode size ln(EXT) (ln) ([3]; 10 µM): 5.73
mean nematode size ln(EXT) (ln) ([3]; 50 µM): 4.53
mean nematode size ln(EXT) (ln) ([3]; 100 µM): 4.72
mean nematode size ln(EXT) (ln) ([3]; 200 µM): 4.25

CCCN(CC)CC1COC2(CCC(C(C)(C)C)CC2)O1 (configuration not stated) [Spiroxamine]
lowest effective concentration [1]: 200 µM
AC50 for larval growth inhibition [2]: 184 µM
mean nematode size ln(EXT) (ln) ([3]; 0.5 µM): 5.61
mean nematode size ln(EXT) (ln) ([3]; 1 µM): 5.84
mean nematode size ln(EXT) (ln) ([3]; 5 µM): 5.9
mean nematode size ln(EXT) (ln) ([3]; 10 µM): 6.1
mean nematode size ln(EXT) (ln) ([3]; 50 µM): 5.84
mean nematode size ln(EXT) (ln) ([3]; 100 µM): 6.17
mean nematode size ln(EXT) (ln) ([3]; 200 µM): 3.97

C=C(C)C(=O)[O][Sn]([CH2]CCC)([CH2]CCC)[CH2]CCC [Stannane, tributyl(2-methyl-1-oxo-2-propenyl)oxy-]
lowest effective concentration [1]: ≤ 0.5 µM
AC50 for larval growth inhibition [2]: 0.511 µM
mean nematode size ln(EXT) (ln) ([3]; 0.5 µM): 4.73
mean nematode size ln(EXT) (ln) ([3]; 1 µM): 4.66
mean nematode size ln(EXT) (ln) ([3]; 5 µM): 3.93
mean nematode size ln(EXT) (ln) ([3]; 10 µM): 3.57
mean nematode size ln(EXT) (ln) ([3]; 50 µM): 3.8
mean nematode size ln(EXT) (ln) ([3]; 100 µM): 3.85
mean nematode size ln(EXT) (ln) ([3]; 200 µM): 3.56

Cc1nn(-c2cc(NS(C)(=O)=O)c(Cl)cc2Cl)c(=O)n1C(F)F [Sulfentrazone]
lowest effective concentration [1]: 200 µM
AC50 for larval growth inhibition [2]: 108 µM
mean nematode size ln(EXT) (ln) ([3]; 0.5 µM): 5.85
mean nematode size ln(EXT) (ln) ([3]; 1 µM): 5.87
mean nematode size ln(EXT) (ln) ([3]; 5 µM): 5.92
mean nematode size ln(EXT) (ln) ([3]; 10 µM): 5.96
mean nematode size ln(EXT) (ln) ([3]; 50 µM): 6.05
mean nematode size ln(EXT) (ln) ([3]; 100 µM): 5.9
mean nematode size ln(EXT) (ln) ([3]; 200 µM): 5.5

Reference: the supplement of paper PMC4858399
